Laboratory results as given in publication PMC5325082 (Molecular Pharmacology, 2017).

Assays:
[1] = tested on: homomeric α9χW55T receptors; type: binding, rat
[2] = tested on: α9χW55Tα10χW55T; type: binding, rat
[3] = tested on: α9χα10χY190T; type: binding, rat
[4] = tested on: α9χY190Tα10χY190T (heteromeric double mutant); type: binding, rat
[5] = tested on: homomeric α10χW55T receptors; type: binding, rat
[6] = target: homomeric α10χ (UniProt P23979+Q9JLB5, L231I/L232I); type: binding, rat
[7] = tested on: α9χY190T (homomeric); type: binding, rat
[8] = tested on: α9χY190Tα10χ; type: binding, rat
[9] = tested on: α10χY190T (homomeric); type: binding, rat
[10] = target: T1, α9χα10χW55T (UniProt P23979+P43144+Q9JLB5, L231I/L232I/W81T); test: [3H]-α-BTX radioligand binding, membranes of transfected tsA201 cells; set-up: species or system rat
T1 construct: containing the extracellular N-terminal domain of the α9 or α10 subunit fused to the transmembrane and intracellular domain of the mouse 5-HT3A subunit; mouse 5-HT3A subunit transmembrane and intracellular domain (fusion partner); expressed in transfected cells; host or cells: tsA201 (derived from human embryonic kidney 293), transient transfection; membrane preparations
Experimental: (§1) Chimeric subunit cDNAs containing the extracellular N-terminal domain of the α9 or α10 subunit fused to the transmembrane and intracellular domain of the mouse 5-HT3A subunit have been described previously ([Baker et al., 2004]). The mammalian cell line tsA201 (derived from the human embryonic kidney 293 cell line) was obtained from Dr. William Green (University of Chicago, Chicago). Cells were cultured in Dulbecco’s modified Eagle’s medium (Invitrogen, Paisley, United Kingdom) containing 2 mM L-GlutaMAX (Invitrogen) plus 10% heat-inactivated fetal calf serum (Sigma, Poole, United Kingdom) with penicillin (100 U/ml) and streptomycin (100 µg/ml) and were maintained in a humidified incubator containing 5% CO2 at 37°C. Cells were transiently transfected using Effectene transfection reagent (QIAGEN, Crawley, United Kingdom) according to the manufacturer’s instructions. In all cases, cells were transfected overnight and assayed for expression approximately 40–48 hours after transfection. To ensure that the levels of radioligand binding were not influenced by differences in the amount of subunit cDNA expressed, the amount of each subunit plasmid DNA and also the total amount of plasmid DNA were kept constant when subunits were expressed singly and in combination. This was achieved by the inclusion of empty plasmid expression vector when single subunits were transfected.
(§2) Binding studies with [^3H]-α-bungarotoxin (α-BTX) in cell membrane preparations were performed essentially as described previously ([Lansdell and Millar, 2000]; [Harkness and Millar, 2002]). Membranes (typically, 10–100 µg of protein) were incubated with radioligand (final concentration 20 nM) for 150 minutes at 4°C in a total volume of 300 µl in the presence of protease inhibitors leupeptin (2 µg/ml) and pepstatin (1 µg/ml). Our standard protocol for determining nonspecific binding was the addition of 1 mM carbachol, 1 mM nicotine, and 10 µM methyllycaconitine to triplicate samples. […] In all cases the levels of specific binding were determined by subtracting the level of nonspecific binding from the total binding (both of which were determined in triplicate). The data were determined as means of three independent experiments, each performed in triplicate. Radioligand binding was assayed by filtration onto 0.5% polyethylenimine-presoaked Whatman GF/B filters (Sigma-Aldrich, Dorset, England) followed by rapid washing (typically, five washes, each of 4 ml) with ice-cold 10 mM phosphate buffer using a Brandel cell harvester, and radioactivity was determined by scintillation counting. […] Protein concentrations were determined using bovine serum albumin standards (Bio-Rad, Hercules, CA).

[11] = target: T2, α9χα10χ (α9 and α10 extracellular domains fused to 5-HT3A) (UniProt P23979+P43144+Q9JLB5, L231I/L232I); test: as above; set-up: species or system rat
T2 construct: the extracellular N-terminal domain of the α9 or α10 subunit; expressed in transfected cells; host or cells: tsA201 cells (HEK293-derived), membrane preparation
Experimental: as §1, §2

[12] = target: α9χW55Tα10χ (UniProt P23979+P43144+Q9JLB5, L231I/L232I/W82T); type: binding, rat

## α-bungarotoxin [[^3H]-α-BTX]
[1]
  Specific binding of [3H]-α-BTX: no detectable specific binding
[2]
  Specific binding of [3H]-α-BTX: binding levels similar to those observed with either α10χ or α10χW55T when expressed alone
[3]
  Specific binding of [3H]-α-BTX, fold lower than wild-type α9χα10χ: 4 fold
[4]
  Specific binding of [3H]-α-BTX: complete loss of specific binding
[5]
  Specific binding of [3H]-α-BTX: 2.5 ± 0.6 fmol/mg
[6]
  Specific binding of [3H]-α-BTX: 1.4 ± 0.5 fmol/mg
[7]
  Specific binding of [3H]-α-BTX: complete loss of specific binding
[8]
  Specific binding of [3H]-α-BTX, fold higher than homomeric α10χ: 4 fold
  Specific binding of [3H]-α-BTX, fold lower than wild-type α9χα10χ: 6 fold
[9]
  Specific binding of [3H]-α-BTX: complete loss of specific binding
[10]
  Specific binding of [3H]-α-BTX: specific binding levels similar to those observed with wild-type heteromeric α9χα10χ receptors
[11]
  Specific binding of [3H]-α-BTX, fold higher than α9χ expressed alone: 6 fold
[12]
  Specific binding of [3H]-α-BTX: binding levels similar to those observed with either α10χ or α10χW55T when expressed alone
